{"source": "paper PMC2865576", "about": "(Journal of medicinal chemistry, 2010)", "note": "Entries after “also recorded” stand apart in the source; their conditions may differ. Marks after values point to notes of the source that are not given here.", "data": [{"system": "tachyzoites of T.gondii strain 2F", "test": "Five day growth inhibition assay", "type": "cell-based, Toxoplasma gondii", "conditions": "HFF cells", "values": [{"smiles": "CC1=C(c2nc(C3CCCCC3)cs2)O[C@@H]2O[C@@]3(C)CC[C@H]4[C@H](C)CC[C@@H]1[C@@]24OO3", "note": "[Compound 8]", "Growth inhibition, result in words": "ineffective"}, {"smiles": "CCN(CC)C(=O)C1=C(C)[C@@H]2CC[C@@H](C)[C@@H]3CC[C@@]4(C)OO[C@@]23[C@H](O1)O4", "note": "[Compound 16]", "Growth inhibition, result in words": "ineffective; also recorded: activity is lost"}, {"smiles": "CC1=C(C(=O)NCc2cc(F)cc(F)c2)O[C@@H]2O[C@@]3(C)CC[C@H]4[C@H](C)CC[C@@H]1[C@@]24OO3", "note": "[Compound 24]", "Growth inhibition, result in words": "potent parasite inhibition"}, {"smiles": "CC1=C(C(=O)NCc2cc(Br)cc(Br)c2)O[C@@H]2O[C@@]3(C)CC[C@H]4[C@H](C)CC[C@@H]1[C@@]24OO3", "note": "[Compound 25]", "Growth inhibition, result in words": "potent parasite inhibition"}]}, {"system": "human foreskin fibroblast (HFF) host cells", "test": "not given", "type": "cell-based", "conditions": "5 days", "values": [{"smiles": "COc1cc(Cc2cnc(N)nc2N)cc(OC)c1OC", "note": "[Trimethoprim]", "TD50, median cytotoxic dose": "≥320 ^b μM"}]}, {"system": "intracellular T. gondii tachyzoites in HFF monolayers", "test": "Replication assay", "type": "cell-based, Toxoplasma gondii", "conditions": "1 μM; separate experiments, authors' unpublished results [37]", "units": {"Parasite doublings per vacuole, dose-response experiment": "doubling"}, "values": [{"smiles": "CC1=C(c2nc(C)cs2)O[C@@H]2O[C@@]3(C)CC[C@H]4[C@H](C)CC[C@@H]1[C@@]24OO3", "note": "[Compound 2]", "Parasite doublings per vacuole, dose-response experiment": 2}, {"smiles": "CC1=C(c2nc(C)c(C)s2)O[C@@H]2O[C@@]3(C)CC[C@H]4[C@H](C)CC[C@@H]1[C@@]24OO3", "note": "[Compound 3]", "Parasite doublings per vacuole, dose-response experiment": 1}, {"smiles": "CC1=C(c2ncc(C)s2)O[C@@H]2O[C@@]3(C)CC[C@H]4[C@H](C)CC[C@@H]1[C@@]24OO3", "note": "[Compound 4]", "Parasite doublings per vacuole, dose-response experiment": 2}, {"smiles": "CC1=C(c2nc(-c3ccccc3)cs2)O[C@@H]2O[C@@]3(C)CC[C@H]4[C@H](C)CC[C@@H]1[C@@]24OO3", "note": "[Compound 5]", "Parasite doublings per vacuole, dose-response experiment": 1}, {"smiles": "CC1=C(c2nc(-c3ccccc3)no2)O[C@@H]2O[C@@]3(C)CC[C@H]4[C@H](C)CC[C@@H]1[C@@]24OO3", "note": "[Compound 14]", "Parasite doublings per vacuole, dose-response experiment": 1}]}, {"system": "intracellular T. gondii tachyzoites in HFF monolayers", "test": "Replication assay", "type": "cell-based, Toxoplasma gondii", "conditions": "5 μM; separate experiments, authors' unpublished results [37]", "units": {"Parasite doublings per vacuole, dose-response experiment": "doubling"}, "values": [{"smiles": "CC1=C(c2nc(C)cs2)O[C@@H]2O[C@@]3(C)CC[C@H]4[C@H](C)CC[C@@H]1[C@@]24OO3", "note": "[Compound 2]", "Parasite doublings per vacuole, dose-response experiment": 1}, {"smiles": "CC1=C(c2nc(C)c(C)s2)O[C@@H]2O[C@@]3(C)CC[C@H]4[C@H](C)CC[C@@H]1[C@@]24OO3", "note": "[Compound 3]", "Parasite doublings per vacuole, dose-response experiment": 1}, {"smiles": "CC1=C(c2ncc(C)s2)O[C@@H]2O[C@@]3(C)CC[C@H]4[C@H](C)CC[C@@H]1[C@@]24OO3", "note": "[Compound 4]", "Parasite doublings per vacuole, dose-response experiment": 1}, {"smiles": "CC1=C(c2nc(-c3ccccc3)cs2)O[C@@H]2O[C@@]3(C)CC[C@H]4[C@H](C)CC[C@@H]1[C@@]24OO3", "note": "[Compound 5]", "Parasite doublings per vacuole, dose-response experiment": 1}, {"smiles": "CC1=C(c2nc(-c3ccccc3)no2)O[C@@H]2O[C@@]3(C)CC[C@H]4[C@H](C)CC[C@@H]1[C@@]24OO3", "note": "[Compound 14]", "Parasite doublings per vacuole, dose-response experiment": 1}]}, {"system": "intracellular T. gondii tachyzoites in HFF monolayers", "test": "Replication assay", "type": "cell-based, Toxoplasma gondii", "conditions": "10 μM, added 2 h after inoculation, 24-26 h", "values": [{"smiles": "CO[C@H]1O[C@@H]2O[C@@]3(C)CC[C@H]4[C@H](C)CC[C@@H]([C@H]1C)[C@@]24OO3", "note": "[Artemether, reference compound]", "Replication inhibition, result in words": "only modest inhibition"}, {"smiles": "C[C@@H]1CC[C@H]2[C@@H](C)C(=O)O[C@@H]3O[C@@]4(C)CC[C@@H]1[C@]32OO4", "note": "[Artemisinin, reference compound]", "Replication inhibition, result in words": "no measurable activity"}, {"smiles": "CC1=C(c2nc(C3CCCCC3)cs2)O[C@@H]2O[C@@]3(C)CC[C@H]4[C@H](C)CC[C@@H]1[C@@]24OO3", "note": "[Compound 8]", "Replication inhibition, result in words": "only weakly inhibited replication"}, {"smiles": "CSc1ccc(-c2csc(C3=C(C)[C@@H]4CC[C@@H](C)[C@@H]5CC[C@@]6(C)OO[C@@]45[C@H](O3)O6)n2)cc1", "note": "[Compound 11]", "Replication inhibition, result in words": "completely inhibited replication"}, {"smiles": "CC1=C(c2nc(-c3ccccc3)no2)O[C@@H]2O[C@@]3(C)CC[C@H]4[C@H](C)CC[C@@H]1[C@@]24OO3", "note": "[Compound 14]", "Replication inhibition, result in words": "effectively inhibited replication"}, {"smiles": "CC1=C(C(=O)NCc2ccc(F)cc2)O[C@@H]2O[C@@]3(C)CC[C@H]4[C@H](C)CC[C@@H]1[C@@]24OO3", "note": "[Compound 20]", "Replication inhibition, result in words": "effectively inhibited replication"}, {"smiles": "CC1=C(C(=O)NCc2ccc(C(F)(F)F)cc2)O[C@@H]2O[C@@]3(C)CC[C@H]4[C@H](C)CC[C@@H]1[C@@]24OO3", "note": "[Compound 22]", "Replication inhibition, result in words": "effectively inhibited replication"}, {"smiles": "CC1=C(C(=O)NCc2cc(Br)cc(Br)c2)O[C@@H]2O[C@@]3(C)CC[C@H]4[C@H](C)CC[C@@H]1[C@@]24OO3", "note": "[Compound 25]", "Replication inhibition, result in words": "completely inhibited replication; also recorded: effectively inhibited replication"}]}, {"system": "intracellular T. gondii tachyzoites in HFF monolayers", "test": "Replication assay", "type": "cell-based, Toxoplasma gondii", "conditions": "10 μM; separate experiments, authors' unpublished results [37]", "units": {"Parasite doublings per vacuole, dose-response experiment": "doubling"}, "values": [{"smiles": "CC1=C(c2nc(C)cs2)O[C@@H]2O[C@@]3(C)CC[C@H]4[C@H](C)CC[C@@H]1[C@@]24OO3", "note": "[Compound 2]", "Parasite doublings per vacuole, dose-response experiment": 1}, {"smiles": "CC1=C(c2nc(C)c(C)s2)O[C@@H]2O[C@@]3(C)CC[C@H]4[C@H](C)CC[C@@H]1[C@@]24OO3", "note": "[Compound 3]", "Parasite doublings per vacuole, dose-response experiment": 1}, {"smiles": "CC1=C(c2ncc(C)s2)O[C@@H]2O[C@@]3(C)CC[C@H]4[C@H](C)CC[C@@H]1[C@@]24OO3", "note": "[Compound 4]", "Parasite doublings per vacuole, dose-response experiment": 1}, {"smiles": "CC1=C(c2nc(-c3ccccc3)cs2)O[C@@H]2O[C@@]3(C)CC[C@H]4[C@H](C)CC[C@@H]1[C@@]24OO3", "note": "[Compound 5]", "Parasite doublings per vacuole, dose-response experiment": 0.5}, {"smiles": "CC1=C(c2nc(-c3ccccc3)no2)O[C@@H]2O[C@@]3(C)CC[C@H]4[C@H](C)CC[C@@H]1[C@@]24OO3", "note": "[Compound 14]", "Parasite doublings per vacuole, dose-response experiment": 0.5}]}, {"system": "intracellular T. gondii tachyzoites in HFF monolayers", "test": "Replication assay", "type": "cell-based, Toxoplasma gondii", "conditions": "Toxoplasma gondii, read-out: Inhibition of parasite replication", "units": {"inhibition at 10 µM": "%"}, "values": [{"smiles": "CC1=C(c2nc(-c3ccc(S(C)(=O)=O)cc3)cs2)O[C@@H]2O[C@@]3(C)CC[C@H]4[C@H](C)CC[C@@H]1[C@@]24OO3", "note": "[Compound 12]", "inhibition at 10 µM": 75}, {"smiles": "CC1=C(c2nc(C)no2)O[C@@H]2O[C@@]3(C)CC[C@H]4[C@H](C)CC[C@@H]1[C@@]24OO3", "note": "[Compound 13]", "inhibition at 10 µM": 50}, {"smiles": "CC1=C(c2nc(-c3ccccc3)no2)O[C@@H]2O[C@@]3(C)CC[C@H]4[C@H](C)CC[C@@H]1[C@@]24OO3", "note": "[Compound 14]", "inhibition at 10 µM": 75}, {"smiles": "CCNC(=O)C1=C(C)[C@@H]2CC[C@@H](C)[C@@H]3CC[C@@]4(C)OO[C@@]23[C@H](O1)O4", "note": "[Compound 15]", "inhibition at 10 µM": 50}, {"smiles": "CC1=C(C(=O)NCc2ccccc2)O[C@@H]2O[C@@]3(C)CC[C@H]4[C@H](C)CC[C@@H]1[C@@]24OO3", "note": "[Compound 18]", "inhibition at 10 µM": 50}, {"smiles": "CC1=C(C(=O)NCc2ccc(F)cc2)O[C@@H]2O[C@@]3(C)CC[C@H]4[C@H](C)CC[C@@H]1[C@@]24OO3", "note": "[Compound 20]", "inhibition at 10 µM": 75}, {"smiles": "CC1=C(C(=O)NCc2ccc(C)cc2)O[C@@H]2O[C@@]3(C)CC[C@H]4[C@H](C)CC[C@@H]1[C@@]24OO3", "note": "[Compound 21]", "inhibition at 10 µM": 50}, {"smiles": "CC1=C(C(=O)NCc2ccc(C(F)(F)F)cc2)O[C@@H]2O[C@@]3(C)CC[C@H]4[C@H](C)CC[C@@H]1[C@@]24OO3", "note": "[Compound 22]", "inhibition at 10 µM": 75}, {"smiles": "CC1=C(C(=O)NCc2ccc(F)c(F)c2)O[C@@H]2O[C@@]3(C)CC[C@H]4[C@H](C)CC[C@@H]1[C@@]24OO3", "note": "[Compound 23]", "inhibition at 10 µM": 50}, {"smiles": "CC1=C(C(=O)NCc2cc(F)cc(F)c2)O[C@@H]2O[C@@]3(C)CC[C@H]4[C@H](C)CC[C@@H]1[C@@]24OO3", "note": "[Compound 24]", "inhibition at 10 µM": 50}]}]}
